In patent publication US8633314B2, “Forms of a multicyclic compound” (Cephalon, Inc., priority 2009, dated 2014):
One block for each compound: values may come before it.

Experiments:
Type in all cases: physicochemical
[1] = Relative stability of slurries in water (XRPD of residual solid); conditions: for Forms Found (XRPD of residual solid): water
Description: Two ml of water was added to a few milligrams of Compound I forms. The samples were slurried overnight. A small sample of solid was removed and analyzed by XRPD. […] The hydrate form appears to be more thermodynamically stable than Form A0 between 5 and 45° C.

[2] = Solid state stress stability (storage; XRPD and stability-indicating HPLC)
Description: Typically 10 μL aliquots of the sample solutions were diluted to 1 mL with acetonitrile and the assay concentrations were determined from an average of duplicate injections using the following HPLC method. The purity and impurity analyses are done using conventional HPLC.
Crystallization studies were performed to investigate polymorphism in 48 different solvents. Solvents were selected on the basis of acceptability (ICH Class 3 and 2) and to give a range of dielectric constants, dipole moments and functional groups. Two starting materials were selected: Form A0 and Lot 7 (a mixture of Form A0, Form HC0 and Form HD0). When possible, full characterization was performed on the new forms that were generated during the polymorphism screening of Compound I. This characterization consisted of: XRPD, thermal analysis, DVS, storage at 40° C./75% RH and purity.
Stress stability studies were performed to get a timely impression of the influence of temperature and humidity on form stability. A stability-indicating HPLC assay method was developed for quantitation of Compound I and its major degradation product, 7-methoxy-1,2,3,11-tetrahydro-5,11-diaza-benzo[a]trindene-4,6-dione, previously referred to as “Compound E”.

[3] = Well plate crystallization with added water (forms found); conditions: for Forms Found: methyl acetate
Description: B. Plates containing 10 volumes of Compound I (40 mg of Lot 7 in 400 μL) were heated from 20° C. to an initial temperature of 80° C. at a rate of 4.8° C./min and after 30 minutes, cooled at a slow (0.28° C./min), or fast (10° C./min) rate to a final temperature of 5° C. and kept at that temperature for 18 hours. The crystallization experiments were carried out in glass vial (4 mL) well plates, and solid material was isolated by filtration. The solid was dried at 57° C. for 10 hours.

[4] = Dynamic vapor sorption (DVS)
Description: Gravimetric vapor sorption experiments were carried out using the DVS-HT instrument (Surface Measurement Systems, London, UK). This instrument measures the uptake and loss of vapor gravimetrically using a recording ultra-microbalance with a mass resolution of ±0.1 μg. The vapor partial pressure (±1.0%) around the sample was controlled by mixing saturated and dry carrier gas streams using electronic mass flow controllers. The desired temperature was maintained at ±0.1° C.
The samples (10-25 mg) were placed into the DVS-HT instrument at the desired temperature. Two types of dynamic vapor sorption experiments were performed: • 1. The sample was initially dried in stream of dry air (<0.1% relative humidity (RH)) for 20 hours to establish a dry mass and exposed to two 0-90% RH cycles (in 10% RH increments). • 2. The sample was exposed at 90% RH for 20 hours and exposed to two 90-0% RH cycles (in 10% RH increments). Infrared Spectrometry (FTIR)

[5] = Mechanical stress: grinding by mortar and pestle, milling by Wig-L-Bug
Description: Approximately 100 mg of Compound I was ground at different times ranging from 5 to 27 min in an agate mortar. Samples were removed for XRPD and thermal analysis. The grinding process was stopped every 5 minutes to scrape and remix powder cakes at the curvature end of the jars to ensure homogenous grinding.
A Wig-l-Bug® (Piketech, USA) was used to grind Compound I Form A0, HA0 and HB0 (mixture of Forms HC0 and HD0). Each sample (50 mg) was ground for periods of 5 and 10 minutes or until no change was observed. Each milling was carried out in a 2.82 cm^3 container using 0.9 g stainless steel ball ([…]). The vial is swung through a 6.5° arc at 3200 rpm, causing the ball to strike the end of the vial at over 100 Hz.

[6] = Variable temperature X-ray powder diffraction (VT-XRPD)
Description: Variable temperature studies were performed under a nitrogen atmosphere with an Anton Paar TTK450 temperature chamber under computer control through an Anton Paar TCU100 temperature control unit. Two measurement schemes were used, restricted and continuous. In the restricted mode, measurements were made, only after the TK450 chamber reached the requested temperature. In the continuous mode, the sample was heated at 10° C./minute and fast scans were measured as the temperature changed. After the requested temperature was reached, the sample was cooled at 30 or 35° C./minute and a slower scan measured 25° C.

[7] = Thermodynamic solubility of monohydrate forms in organic solvents
Description: Experiments were set up to measure the thermodynamic solubility of these monohydrate forms at room temperature and 55° C. in ethyl acetate, MTBE and 1-pentanol.

[8] = Irregular DVS (90 to 0% RH), listed as A0
[9] = Regular DVS (0 to 90% RH), listed as A0
[10] = Irregular DVS (90 to 0% RH), listed as HD0
[11] = Regular DVS (0 to 90% RH), listed as HD0

Forms Found (XRPD of residual solid) ([1]; 5° C., 1 day): HC0, HD0 | Forms Found (XRPD of residual solid) ([1]; 5° C., 4 days): HC0, HD0 | Forms Found (XRPD of residual solid) ([1]; 45° C., 1 day): HA0, HC0 | Chemical Stability (HPLC (post 4 weeks at 40° C./75% RH (Area %))) ([2]; 40° C./75% RH): 99.0 Area % | forms arising on storage (water uptake) ([2]; 40° C. and 75% RH, after 3 months): hydrate Forms HC0 and HD0 | HPLC % Compound I ([2]; 40° C./75% RH, 5 days): 99.2% Compound I, | HPLC % Compound I ([2]; 40° C./75% RH, 16 days): 99.2% Compound I, | HPLC % Compound I ([2]; 40° C./75% RH, 29 days): 99.2% Compound I, | HPLC % Compound I ([2]; 40° C./75% RH, 141 days): 99.0% Compound I, | XRPD (form found) ([2]; 40° C./75% RH, 141 days): A0, HC0, HD0 | HPLC % Compound I ([2]; 60° C./0% RH, 7 days): 99.3% Compound I, | HPLC % Compound I ([2]; 60° C./0% RH, 14 days): 99.1% Compound I, | HPLC % Compound I ([2]; 60° C./0% RH, 28 days): 99.1% Compound I, | HPLC % Compound I ([2]; 110° C., 7 days): 98.7% Compound I, | HPLC % Compound I ([2]; 110° C., 14 days): 95.6% Compound I, | HPLC % Compound I ([2]; 110° C., 28 days): 93.4% Compound I, | form produced on crystallization from aqueous media ([3]; aqueous media): a mixture of Forms HC0+HD0 is produced | Forms Found ([3]; 0.175 volumes of water): HC0, HD0 | Forms Found ([3]; 0.25 volumes of water): HC0, HD0 | Forms Found ([3]; 1 volume of water): HC0, HD0 | Forms Found ([3]; 1.5 volumes of water): HC0, HD0 | DVS % increase in mass at 90% RH ([4]; 90% RH): 0.1% | Total uptake at 90% RH ([4]; Irregular DVS (90 to 0% RH)): 0.5% | changes by XRPD re-analysis after DVS ([4]; Irregular DVS (90 to 0% RH)): No significant changes | total increase in mass (reversible isotherm) ([4]; Irregular DVS (90 to 0% RH)): < 0.6% | At 75% RH uptake [4, 8]: 0.15% | Total uptake at 90% RH [4, 8]: 0.5% | At 75% RH uptake ([4]; Regular DVS (0 to 90% RH)): less than 0.08% | Total uptake at 90% RH ([4]; Regular DVS (0 to 90% RH)): approximately 0.1% | changes by XRPD re-analysis after DVS ([4]; Regular DVS (0 to 90% RH)): No significant changes | hygroscopicity ([4]; Regular DVS (0 to 90% RH), adsorption and desorption curves overlap): not hygroscopic | At 75% RH uptake [4, 9]: 0.08% | Total uptake at 90% RH [4, 9]: 0.1% | change in XRPD pattern after heating ([6]; heated to 220° C., then exposure to ambient conditions): no significant change
Structure (SMILES): COc1cccc2[nH]c3c4c(c5c(c3c12)C(=O)N(CN1CCN(C)CC1)C5=O)CCC4 [Form A0, 4,5,6,7-tetrahydro-11-methoxy-2-[(4-methyl-1-piperazinyl)methyl]-1H-cyclopenta[a]pyrrolo[3,4-c]carbazole-1,3(2H)-dione]
form after slurrying in water ([1]; slurried overnight in 2 ml water, all conditions investigated): converted to the hydrate forms (mixture of Forms HC0 and HD0) | XRPD crystallinity after milling ([5]; five minutes, Wig-l-Bug): crystallinity had been significantly reduced | XRPD crystallinity after grinding ([5]; twenty minutes, mortar and pestle): crystallinity had been significantly reduced | solid-solid transformation (VT-XRPD) ([6]; 20° C. to 250° C.): No solid-solid transformation takes place

Chemical Stability (HPLC (post 4 weeks at 40° C./75% RH (Area %))) ([2]; 40° C./75% RH): 92.3 Area % | HPLC % Compound I ([2]; 40° C./75% RH, 0 days): 93.5% Compound I, | XRPD (form found) ([2]; 40° C./75% RH, 0 days): HD0 | HPLC % Compound I ([2]; 40° C./75% RH, 7 days): 92.2% Compound I, | XRPD (form found) ([2]; 40° C./75% RH, 7 days): HD0 | HPLC % Compound I ([2]; 40° C./75% RH, 13 days): 92.3% Compound I, | XRPD (form found) ([2]; 40° C./75% RH, 13 days): HD0 | HPLC % Compound I ([2]; 40° C./75% RH, 28 days): 92.3% Compound I, | XRPD (form found) ([2]; 40° C./75% RH, 28 days): HD0 | Total uptake at 90% RH ([4]; Irregular DVS (90 to 0% RH)): 0.8% | changes by XRPD re-analysis after DVS ([4]; Irregular DVS (90 to 0% RH)): No significant changes | At 75% RH uptake [4, 10]: 0.4% | Total uptake at 90% RH [4, 10]: 0.8% | Total uptake at 90% RH ([4]; Regular DVS (0 to 90% RH)): 0.6% | changes by XRPD re-analysis after DVS ([4]; Regular DVS (0 to 90% RH)): No significant changes | At 75% RH uptake [4, 11]: 0.4% | Total uptake at 90% RH [4, 11]: 0.6% | solubility relative to the other hydrated polymorph (Form HC0) ([7]; ethyl acetate, MTBE, 1-pentanol, RT and 55° C.): always higher
Structure (SMILES): COc1cccc2[nH]c3c4c(c5c(c3c12)C(=O)N(CN1CCN(C)CC1)C5=O)CCC4 [Form HD0, 4,5,6,7-tetrahydro-11-methoxy-2-[(4-methyl-1-piperazinyl)methyl]-1H-cyclopenta[a]pyrrolo[3,4-c]carbazole-1,3(2H)-dione]
relative thermodynamic stability in solution ([7]; between room temperature and 55° C.): more thermodynamically stable than Form HC0 and form HA0
